{
  "source": "patent US12558349B2",
  "about": "“Methods of treating infections in overweight and obese patients using antibiotics” (MELINTA SUBSIDIARY CORP., priority 2013, dated 2026)",
  "key": {"Confirmed MRSA": {"test_system": "Confirmed MRSA", "assay": "Phase 2b clinical trial: Investigators' Global Assessment of Cure in Patients with Confirmed MRSA", "type": "in vivo, human", "settings": "comparators with and without aztreonam; for Response Rate, Investigators' Global Assessment of Cure in Patients with Confirmed MRSA: MITT; for Percent Clinical Cure (MITT): patients with confirmed MRSA", "from_the_text": "(§1) The term “cure” or “Investigators' Global Assessment of Cure” as used herein refers to complete resolution of all signs and symptoms at the follow-up visit."}, "[1]": {"test_system": "Acute Bacterial Skin and Skin Structure Infections (ABSSSI)", "assay": "Phase 2b clinical trial in ABSSSI: Investigators' Global Assessment of Cure", "type": "in vivo, human", "settings": "for Response Rate, Investigators' Global Assessment of Cure: ITT; for Response Rate, Investigators' Global Assessment of Cure / Percent Clinical Cure (ITT): delafloxacin 300 mg BID, Zyvox 600 mg BID, vancomycin 1,000 to 2,000 mg BID, comparators with and without aztreonam; for Percent Clinical Cure (ITT): Investigators' Global Assessment of Cure; for Clinical activity with increased patient weight: Phase 2b data by weight/BMI", "from_the_text": "as §1"}, "[2]": {"test_system": "Acute Bacterial Skin and Skin Structure Infections (ABSSSI)", "assay": "Phase 2b clinical trial: reduction in the size of the lesion at 48 to 72 hours", "type": "in vivo, human"}, "[3]": {"assay": "Phase 2b clinical trial: adverse events", "settings": "for Overall adverse event rates: across the Phase 2b study; for Specific limiting toxicity: human, in vivo"}, "[4]": {"test_system": "Acute Bacterial Skin and Skin Structure Infections (ABSSSI)", "assay": "Phase 2b clinical trial: Objective Endpoint at 48 to 72 hours (cessation of lesion spread and absence or resolution of fever)", "type": "in vivo, human", "settings": "comparators with and without aztreonam; for Percent Cessation of Spread of Erythema and Absence of Fever at 48 to 72 Hours: secondary endpoint"}, "[5]": {"settings": "human, in vivo"}},
  "note": "Read-outs that look alike come from different tables or passages of the source.",
  "data": [
    {"smiles": "Nc1nc(-n2cc(C(=O)O)c(=O)c3cc(F)c(N4CC(O)C4)c(Cl)c32)c(F)cc1F", "note": "[Delafloxacin, 1-(6-amino-3,5-difluoro-2-pyridinyl)-8-chloro-6-fluoro-1,4-dihydro-7-(3-hydroxy-1-azetidinyl)-4-oxo-3-quinolinecarboxylic acid]", "values": [
      {"measurement": "Response Rate, Investigators' Global Assessment of Cure in Patients with Confirmed MRSA", "setting": "Confirmed MRSA", "value": "19/29"},
      {"measurement": "Percent Clinical Cure (MITT)", "setting": "Confirmed MRSA", "value": 65.56, "unit": "%"},
      {"measurement": "Efficacy compared to vancomycin, primary endpoint Investigators' Global Assessment of Cure", "setting": "[1]; 95% Confidence Interval −30.3%, −2.3%, p=0.031", "value": "statistically significant efficacy advantage"},
      {"measurement": "Response Rate, Investigators' Global Assessment of Cure", "setting": "[1]", "value": "57/81"},
      {"measurement": "Percent Clinical Cure (ITT)", "setting": "[1]", "value": 70.4, "unit": "%"},
      {"measurement": "Clinical activity with increased patient weight", "setting": "[1]", "value": "maintained"},
      {"measurement": "Percentage of patients with a 30% or greater reduction in the size of the lesion, versus comparators", "setting": "[2]", "value": "greater percentage of patients"},
      {"measurement": "Evidence for toxicities common in the fluoroquinolone class (phototoxicity, elevated liver enzymes, dysglycemia, QT prolongation)", "setting": "[3]; Phase 2b study", "value": "did not demonstrate evidence"},
      {"measurement": "Leading adverse event", "setting": "[3]; Phase 2b study", "value": "gastrointestinal, or GI, disorder"},
      {"measurement": "Most common specific adverse event", "setting": "[3]; Phase 2b study", "value": "mild to moderate diarrhea"},
      {"measurement": "Overall adverse event rates", "setting": "[3]", "value": 74, "unit": "%"},
      {"measurement": "Specific limiting toxicity", "setting": "[3]", "value": "no specific limiting toxicity"},
      {"measurement": "Response Rate, Objective Endpoint at 48 to 72 hours", "setting": "[4]", "value": "61/78"},
      {"measurement": "Percent Cessation of Spread of Erythema and Absence of Fever at 48 to 72 Hours", "setting": "[4]", "value": 78.2, "unit": "%"},
      {"measurement": "Percent Cessation of Spread of Erythema and Absence of Fever at 48 to 72 Hours", "setting": "[4]; listed as delafloxacin", "value": "approximately 78%"}
    ]},
    {"smiles": "CN[C@H](CC(C)C)C(=O)N[C@H]1C(=O)N[C@@H](CC(N)=O)C(=O)N[C@H]2C(=O)N[C@H]3C(=O)N[C@H](C(=O)N[C@H](C(=O)O)c4cc(O)cc(O)c4-c4cc3ccc4O)[C@H](O)c3ccc(c(Cl)c3)Oc3cc2cc(c3O[C@@H]2O[C@H](CO)[C@@H](O)[C@H](O)[C@H]2O[C@H]2C[C@](C)(N)[C@H](O)[C@H](C)O2)Oc2ccc(cc2Cl)[C@H]1O", "note": "[Vancomycin]", "values": [
      {"measurement": "Specific limiting toxicity", "setting": "[5]", "value": "kidney"},
      {"measurement": "Response Rate, Investigators' Global Assessment of Cure in Patients with Confirmed MRSA", "setting": "Confirmed MRSA", "value": "21/32"},
      {"measurement": "Percent Clinical Cure (MITT)", "setting": "Confirmed MRSA", "value": 65.6, "unit": "%"},
      {"measurement": "Response Rate, Investigators' Global Assessment of Cure", "setting": "[1]", "value": "53/98"},
      {"measurement": "Percent Clinical Cure (ITT)", "setting": "[1]", "value": 54.1, "unit": "%"},
      {"measurement": "Clinical activity with increased patient weight", "setting": "[1]", "value": "decline"},
      {"measurement": "Leading adverse event", "setting": "[3]; Phase 2b study", "value": "disorders of the skin"},
      {"measurement": "Most common specific adverse event", "setting": "[3]; Phase 2b study", "value": "pruritus"},
      {"measurement": "Patients who experienced renal issues", "setting": "[3]; Phase 2b study arm", "value": "three"},
      {"measurement": "Renal failures", "setting": "[3]; Phase 2b study arm, among the renal issues", "value": "two"},
      {"measurement": "Overall adverse event rates", "setting": "[3]", "value": 65, "unit": "%"},
      {"measurement": "Response Rate, Objective Endpoint at 48 to 72 hours", "setting": "[4]", "value": "69/95"},
      {"measurement": "Percent Cessation of Spread of Erythema and Absence of Fever at 48 to 72 Hours", "setting": "[4]", "value": 72.6, "unit": "%"},
      {"measurement": "Percent Cessation of Spread of Erythema and Absence of Fever at 48 to 72 Hours", "setting": "[4]; listed as vancomycin", "value": "~73", "unit": "%"}
    ]},
    {"smiles": "CC(=O)NC[C@H]1CN(c2ccc(N3CCOCC3)c(F)c2)C(=O)O1", "note": "[Zyvox, N-[[(5S)-3-[3-fluoro-4-(4-morpholinyl)phenyl]-2-oxo-5-oxazolidinyl]methyl]acetamide]", "values": [
      {"measurement": "Response Rate, Investigators' Global Assessment of Cure in Patients with Confirmed MRSA", "setting": "Confirmed MRSA", "value": "21/34"},
      {"measurement": "Percent Clinical Cure (MITT)", "setting": "Confirmed MRSA", "value": 61.8, "unit": "%"},
      {"measurement": "Response Rate, Investigators' Global Assessment of Cure", "setting": "[1]", "value": "50/77"},
      {"measurement": "Percent Clinical Cure (ITT)", "setting": "[1]", "value": 84.9, "unit": "%"},
      {"measurement": "Clinical activity with increased patient weight", "setting": "[1]", "value": "decline"},
      {"measurement": "Leading adverse event", "setting": "[3]; Phase 2b study", "value": "GI disorder"},
      {"measurement": "Most common specific adverse event", "setting": "[3]; Phase 2b study", "value": "nausea"},
      {"measurement": "Subjects who experienced thrombocytopenia", "setting": "[3]; Phase 2b study arm", "value": "two"},
      {"measurement": "Overall adverse event rates", "setting": "[3]", "value": 72, "unit": "%"},
      {"measurement": "Specific limiting toxicity", "setting": "[3]", "value": "bone marrow"},
      {"measurement": "Response Rate, Objective Endpoint at 48 to 72 hours", "setting": "[4]", "value": "56/75"},
      {"measurement": "Percent Cessation of Spread of Erythema and Absence of Fever at 48 to 72 Hours", "setting": "[4]", "value": 74.7, "unit": "%"},
      {"measurement": "Percent Cessation of Spread of Erythema and Absence of Fever at 48 to 72 Hours", "setting": "[4]; listed as linezolid", "value": "~75", "unit": "%"}
    ]}
  ]
}
